Reference: US20240199582A1, “INHIBITORS OF POLY(ADP-RIBOSE) POLYMERASE” (RHIZEN PHARMACEUTICALS AG, priority 2021, published 2024)

Experiments:
[1] = Rat pharmacokinetics (oral and IV), plasma by LC-MS/MS; type: in vivo, rats (Wistar rat strains); details: for AUC(0-t): Compound 1 prepared by Method 2, Compound 1D prepared by Method 2, read-out: AUC0-24
Method: The oral bioavailability of Compound 1 and its salts were evaluated in rats. The protocol for the pharmacokinetic (PK) studies in rats is provided below.
Formulation 1: Polysorbate 80 (10% v/v)+Methyl Cellulose (MC) (0.5% w/v) • 1. 200 mg^#of the test compound was weighed and transferred into a mortar. • 2. 1.0 mL of polysorbate 80 (10% v/v of the final suspension) was added to the mortar and the test item was triturated to afford a smooth paste. • 3. 9.0 mL of 0.5% methyl cellulose (4000 cps) was added and triturated to afford a fine suspension. • 4. The final strength of the formulation was 20.0 mg/mL. #For salts of the test compound in order to achieve the equivalent dose level on a molar basis as the free base, a correction factor was used based on the salt and purity. Formulation 2: Propylene Glycol (40% v/v)+60% Methyl Cellulose (MC) (0.5% w/v) • 1. 1400 mg #of the test compound was weighed and transferred into a glass beaker. • 2. 28.0 mL of propylene glycol (1,2-popanediol) (40% v/v of the final volume) was added to the glass beaker and sonicated for 20 min to dissolve. (strength is 50 mg/mL) • 3. At the time of dosing, 20 mL of propylene glycol (50.0 mg/mL) and 30.0 mL of 0.5% methyl cellulose (4000 cps) were mixed with continuous stirring to afford a clear solution • 4. The final strength of the formulation was 20.0 mg/mL. • #For salts of the test compound in order to achieve the equivalent dose level on a molar basis as the free base, a correction factor was used based on the salt and purity.
(§1) Protocol: All animals (mice (BALB/c mice), rats (Wistar rat strains), and dogs (beagle, non-naïve)) were fasted overnight (12 hours) before dosing and continued till 4.0 hours after administration of test item. The blood samples (all collections each of 150 μL from each animal) were collected according to the sampling schedule from orbital sinus or jugular vein into the micro centrifuge tube containing dipotassium EDTA as an anticoagulant. Blood samples were centrifuged immediately with a speed of 4000 RPM for 10 min at 4° C. and separated plasma samples were frozen at below −80° C. and stored until analysis. The plasma concentrations of test item in all samples were analysed by LC-MS/MS method Pharmacokinetic parameters viz. Cmax, AUC0-t, AUC0-∞, Tmax, and t½, were estimated by using WinNonlin software.

[2] = system: BRCA mutant and non-BRCA mutant cancer cell lines; assay: Cell proliferation assay to determine GI50 in BRCA mutant and non-BRCA mutant cancer cell lines; type: cell-based; details: range over BRCA mutant and non-BRCA mutant cancer cell lines; treatment 72, 120 or 144 hours
Method: On Day “0” the test cells were plated in 100 μL/well in complete media in a 96-well plate in triplicates and plates were incubated at 37° C. and 5% CO2. On Day 1, 10 μL of MTT (5 mg/ml) were added to the column designated for Day “0”. It was mixed well and incubated at 37° C. and 5% CO2 for 3.5 h. Cells were pelleted down at 4000 rpm for 10 minutes. Media was aspirated out and 150 μL of DMSO were added to the cells and mixed by pipetting to dissolve the crystals. Plate was read at A560 nm and A640. DMSO dilutions of the inhibitors (Compound 1 or Compound 1D) were diluted to 3× of required concentration in growth medium. Cells in each well were treated with 50 μL of complete media containing inhibitor. DMSO concentration in the well was 0.1%. Plates were incubated at 37° C. and 5% CO2 as required for 144 hours. 15 μL of MTT (5 mg/mL) was added to the wells. Plates were incubated at 37° C. and 5% CO2 for 3.5 hours. After incubation, cells are pelleted down at 4000 rpm for 10 min. Media was aspirated and 150 μL of DMSO per well were added to dissolve the formazan crystals. Plate was read at A560 nm and A640. […]
Cancer cell lines were plated at desired density in their respective complete media and incubated overnight at 37° C. and 5% CO2. […] At the end of the treatment period, cell viability was measured and GI50 values were calculated.

[3] = Dog pharmacokinetics (IV and oral), plasma by LC-MS/MS; type: in vivo, dogs (beagle, non-naïve)
Method: as §1

[4] = Mice pharmacokinetics (IV and oral), plasma by LC-MS/MS; type: in vivo, mice (BALB/c mice)
Method: as §1

[5] = Wistar, plasma, oral, 100 mg/kg, Formulation 1: Polysorbate 80 (10% v/v) + MC (0.5% w/v), Compound 1 prepared by Method 2, Compound 1D prepared by Method 2
[6] = Wistar, plasma, oral, 100 mg/kg, Formulation 1: Polysorbate 80 (10% v/v) + MC (0.5% w/v)
[7] = Wistar, plasma, oral, 100 mg/kg, Formulation 1: Polysorbate 80 (10% v/v) + MC (0.5% w/v), Compound 1 prepared by Method 2, Compound 1D prepared by Method 2, read-out: Tmax
[8] = oral, 100 mg/kg, Formulation 1: Polysorbate 80 (10% v/v) + MC (0.5% w/v), Compound 1C prepared by Method 1
[9] = oral, 100 mg/kg, Formulation 1: Polysorbate 80 (10% v/v) + MC (0.5% w/v), Compound 1C prepared by Method 2
[10] = oral, 100 mg/kg, Formulation 1: Polysorbate 80 (10% v/v) + MC (0.5% w/v), Compound 1 prepared by Method 2, Compound 1D prepared by Method 2
[11] = oral, 100 mg/kg, Formulation 1: Polysorbate 80 (10% v/v) + MC (0.5% w/v), Compound 1 prepared by Method 2, Compound 1D prepared by Method 2, 100 mg/kg
[12] = oral, 100 mg/kg, Formulation 2: PG (40% v/v) + 60% MC (0.5% w/v), Compound 1D prepared by Method 2
[13] = oral, 100 mg/kg, Formulation 2: PG (40% v/v) + 60% MC (0.5% w/v), Compound 1D prepared by Method 3

Compound C[C@]1(O)C(=O)N(c2cncc(Cc3n[nH]c(=O)c4ccccc34)c2)c2ccccc21.Cl [Compound 1A, (R)-(+)-4-((5-(3-Hydroxy-3-methyl-2-oxoindolin-1-yl)pyridin-3-yl)methyl)phthalazin-1(2H)-one, hydrochloride] has a melting point of 226 to 228 °C, a Cmax [1, 5] of 4.38 µM and an AUC(0-t) [1, 6] of 23.3 µM·h. For the same compound, the Tmax [1, 7] was 15 min.

Compound C[C@]1(O)C(=O)N(c2cncc(Cc3n[nH]c(=O)c4ccccc34)c2)c2ccccc21.Cc1ccc(S(=O)(=O)O)cc1 [Compound 1C, (R)-(+)-4-((5-(3-hydroxy-3-methyl-2-oxoindolin-1-yl)pyridin-3-yl)methyl)phthalazin-1(2H)-one, 4-methylbenzene sulfonate] has an AUC0-24 [1, 8] of 39.98 µM·h, a Cmax [1, 8] of 11.9 µM and a Tmax [1, 8] of 30 min. It also gave an AUC0-24 [1, 9] of 23.09 µM·h, a Cmax [1, 9] of 10.5 µM and a Tmax [1, 9] of 15 min.

C[C@]1(O)C(=O)N(c2cncc(Cc3n[nH]c(=O)c4ccccc34)c2)c2ccccc21 [Compound 1, (R)-(+)-4-((5-(3-Hydroxy-3-methyl-2-oxoindolin-1-yl)pyridin-3-yl)methyl)phthalazin-1(2H)-one] showed a melting point of 110 to 113 °C, a GI50 [2] of 0.043 to 19.8 µM and a Cmax [1, 5] of 2.56 µM. For the same compound, the AUC(0-t) [1, 6] was 7.81 µM·h and the Tmax [1, 7] was 30 min.

CS(=O)(=O)O.C[C@]1(O)C(=O)N(c2cncc(Cc3n[nH]c(=O)c4ccccc34)c2)c2ccccc21 [Compound 1D, (R)-(+)-4-((5-(3-Hydroxy-3-methyl-2-oxoindolin-1-yl)pyridin-3-yl)methyl)phthalazin-1(2H)-one, methane sulfonate] showed an AUC0-24 ([3]; IV, 1 mg/kg) of 2.73 µM·h, a C0 ([3]; IV, 1 mg/kg) of 4.11 µM and a Cmax ([3]; IV, 1 mg/kg) of 3.47 µM. For the same compound, the AUC0-24 ([3]; oral, 20 mg/kg) was 57.05 µM·h, the Cmax ([3]; oral, 20 mg/kg) was 22.9 µM and the Tmax ([3]; oral, 20 mg/kg) was 30 min. It also gave an AUC0-24 ([1]; IV, 1 mg/kg) of 1.18 µM·h, a C0 ([1]; IV, 1 mg/kg) of 5.25 µM and a Cmax ([1]; IV, 1 mg/kg) of 4.47 µM. The AUC0-24 ([1]; oral, 10 mg/kg) was 8.96 µM·h, the Cmax ([1]; oral, 10 mg/kg) was 8.43 µM and the Tmax ([1]; oral, 10 mg/kg) was 22.8 min. For the same compound, the AUC0-24 [1, 10] was 34.71 µM·h, the Tmax [1, 10] was 15 min and the Cmax [1, 11] was 13 µM. The AUC0-24 [1, 12] was 135.36 µM·h, the Cmax [1, 12] was 55.6 µM and the Tmax [1, 12] was 30 min. It also gave an AUC0-24 [1, 13] of 139.36 µM·h, a Cmax [1, 13] of 53.7 µM and a Tmax [1, 13] of 30 min. The AUC0-24 ([4]; IV, 1 mg/kg) was 1.12 µM·h, the C0 ([4]; IV, 1 mg/kg) was 3.12 µM and the Cmax ([4]; IV, 1 mg/kg) was 2.87 µM. It also gave an AUC0-24 ([4]; oral, 10 mg/kg) of 5.64 µM·h, a Cmax ([4]; oral, 10 mg/kg) of 7.62 µM and a Tmax ([4]; oral, 10 mg/kg) of 15 min.

Work on C[C@]1(O)C(=O)N(c2cncc(Cc3n[nH]c(=O)c4ccccc34)c2)c2ccccc21.O=S(=O)(O)c1ccccc1 [Compound 1B, (R)-(+)-4-((5-(3-hydroxy-3-methyl-2-oxoindolin-1-yl)pyridin-3-yl)methyl)phthalazin-1(2H)-one, benzene sulfonate] yielded an AUC0-24 [1, 10] of 32.43 µM·h, a Tmax [1, 10] of 30 min and a Cmax [1, 11] of 17.2 µM.
